According to patent US12491170B2, “Stable treprostinil prodrugs” (United Therapeutics Corporation, priority 2020, dated 2025):
Where two headings read alike, the source gives them in different places.

Key:
[1] = Stability in cryopreserved hepatocytes, dog; conditions: for AUC / Mono AUC (treprostinil formed) / CLint / Half-life: dog
[2] = molecular target: prostaglandin E2 (PGE2) receptor 2 (EP2) (Homo sapiens, UniProt P43116); assay: EP2 receptor cAMP agonist assay (HEK293T cells); format: cell-based; set-up: key to EC50 Fold Different from Treprostinil, EP2 Receptor: NC = too inactive to realistically calculate; conditions: for Activity at the EP2 receptor compared to treprostinil: summary of findings
In short: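 Agonist-mode cAMP accumulation in cells overexpressing the human receptor (DP1 and EP2 in HEK293T, IP in CHO-K1). Compounds were added at varying concentrations with 0.1% DMSO for 20 min at 37 °C, then cAMP was read by TR-FRET. Dose-responses were fitted to variable-slope sigmoidal curves.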

[3] = Stability in cryopreserved hepatocytes, rat; conditions: for CLint, calculated (in parentheses) / Half-life, calculated (in parentheses) / CLint / Half-life: hepatocytes; for AUC / Mono AUC (treprostinil formed) / CLint / Half-life: rat
[4] = Stability in liver microsomes, rat; conditions: for CLint, calculated (in parentheses) / Half-life, calculated (in parentheses) / CLint / Half-life: microsomes; for AUC Mono (treprostinil formed) / CLint / Half-life: rat
[5] = rat
[6] = Stability in liver microsomes, dog; conditions: for AUC Mono (treprostinil formed) / CLint / Half-life: dog
[7] = Hydrolysis of prodrugs to treprostinil at pH 6, 7, 8 and 40 C; format: physicochemical
Text: Tables 24, 25 and 26 present data for hydrolysis of selected treprostinil prodrugs at pH 6, 7 and 8, respectively, and 40 C.

[8] = Stability in liver microsomes, human; conditions: for AUC / AUC Mono (treprostinil formed) / CLint / Half-life: human

Chain of prostaglandin E2 (PGE2) receptor 2 (EP2) (P43116 whole entry): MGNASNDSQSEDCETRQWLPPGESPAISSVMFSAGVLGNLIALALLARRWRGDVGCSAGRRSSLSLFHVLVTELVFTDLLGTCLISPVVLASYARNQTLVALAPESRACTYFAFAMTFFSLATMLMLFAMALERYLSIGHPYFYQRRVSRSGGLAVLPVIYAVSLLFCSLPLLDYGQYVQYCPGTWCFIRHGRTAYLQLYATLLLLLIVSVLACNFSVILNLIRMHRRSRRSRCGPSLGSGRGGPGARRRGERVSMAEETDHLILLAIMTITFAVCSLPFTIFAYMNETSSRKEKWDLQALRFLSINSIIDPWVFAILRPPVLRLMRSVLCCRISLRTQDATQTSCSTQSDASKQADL

## CCCCCC(CCC1C(OC(=O)CC)CC2Cc3c(cccc3OCC(=O)O)CC21)OC(=O)CC (stereo not drawn) [Prodrug LXX, treprostinil dipropionate]
[1]
  Trep Concentration (μM) 0 min: 0.0959 µM
  Trep Concentration (μM) 30 min: 0.597 µM
  Trep Concentration (μM) 60 min: 0.511 µM
  Trep Concentration (μM) 120 min: 0.445 µM
  Treprostinil Concentration 15 min: 0.736 µM
  Treprostinil Concentration 120 min: 0.445 µM
  AUC: 61.54 µmol·min/L
  Mono AUC (treprostinil formed): 61.5 µmol·min/L
[1]; hepatocytes
  CLint: >0.0308 mL/min/mg protein
  Half-life: <15 min
[2]; Table 18, * partial agonists or odd dose-response curves
  EC50 Fold Different from Treprostinil, EP2 Receptor: NC
[2]
  Activity at the EP2 receptor compared to treprostinil: inactive
[3]
  Trep Concentration (μM) 0 min: 0 µM
  Trep Concentration (μM) 15 min: 0.606 µM
  Trep Concentration (μM) 30 min: 0.579 µM
  Trep Concentration (μM) 60 min: 0.484 µM
  Trep Concentration (μM) 120 min: 0.405 µM
  Treprostinil Concentration 0 min: 0 µM
  Treprostinil Concentration 120 min: 0.405 µM
  CLint, calculated (in parentheses): 0.116 mL/min/mg protein
  Half-life, calculated (in parentheses): 3.97 min
  AUC: 56.05 µmol·min/L
  Mono AUC (treprostinil formed): 56.1 µmol·min/L
  CLint: > 0.0308 mL/min/mg protein
  Half-life: < 15 min
[4]
  Trep Concentration 0 min: 0.336 µM
  Trep Concentration 10 min: 0.595 µM
  Trep Concentration 20 min: 0.764 µM
  Trep Concentration 30 min: 0.653 µM
  Trep Concentration 60 min: 0.699 µM
  Treprostinil Concentration 0 min: 0.336 µM
  Treprostinil Concentration 15 min: 0.595 µM
  Treprostinil Concentration 30 min: 0.764 µM
  Treprostinil Concentration 60 min: 0.653 µM
  Treprostinil Concentration 120 min: 0.699 µM
  CLint, calculated (in parentheses): 0.250 mL/min/mg protein
  Half-life, calculated (in parentheses): 5.53 min
  AUC Mono (treprostinil formed): 38.8 µmol·min/L
  CLint: > 0.139 mL/min/mg protein
  Half-life: < 10 min
[5]
  AUC: 38.82 µmol·min/L
[6]
  Trep Concentration 0 min: 1.24 µM
  Trep Concentration 10 min: 1.26 µM
  Trep Concentration 20 min: 1.24 µM
  Trep Concentration 30 min: 1.23 µM
  Trep Concentration 60 min: 1.07 µM
  Treprostinil Concentration 0 min: 1.24 µM
  Treprostinil Concentration 15 min: 1.26 µM
  Treprostinil Concentration 30 min: 1.24 µM
  Treprostinil Concentration 60 min: 1.23 µM
  Treprostinil Concentration 120 min: 1.07 µM
  AUC Mono (treprostinil formed): 71.9 µmol·min/L
[6]; microsomes
  CLint: >0.139 mL/min/mg protein
  Half-life: <10 min
[7]; pH 6, 40 C.
  Hydrolysis to treprostinil, % Area, t = 1 week: 0.00 % Area
  Hydrolysis to treprostinil, % Area, t = 2 weeks: 0.00 % Area
  Hydrolysis to treprostinil, % Area, t = 3 weeks: 0.00 % Area
[7]; pH 7, 40 C.
  Hydrolysis to treprostinil, % Area, t = 1 week: 0.00 % Area
  Hydrolysis to treprostinil, % Area, t = 2 weeks: 0.00 % Area
  Hydrolysis to treprostinil, % Area, t = 3 weeks: 0.00 % Area
[7]; pH 8, 40 C.
  Hydrolysis to treprostinil, % Area, t = 1 week: 0.00 % Area
  Hydrolysis to treprostinil, % Area, t = 2 weeks: 0.00 % Area
  Hydrolysis to treprostinil, % Area, t = 3 weeks: 0.00 % Area
[8]
  Trep Concentration 0 min: 1.18 µM
  Trep Concentration 10 min: 0.903 µM
  Trep Concentration 20 min: 0.602 µM
  Trep Concentration 30 min: 0.538 µM
  Trep Concentration 60 min: 0.381 µM
  Treprostinil Concentration 0 min: 1.18 µM
  Treprostinil Concentration 15 min: 0.903 µM
  Treprostinil Concentration 30 min: 0.602 µM
  Treprostinil Concentration 60 min: 0.538 µM
  Treprostinil Concentration 120 min: 0.381 µM
  AUC: 37.43 µmol·min/L
  AUC Mono (treprostinil formed): 37.4 µmol·min/L
[8]; microsomes
  CLint: >0.139 mL/min/mg protein
  Half-life: <10 min

## CCCCCC(CCC1C(OC(=O)OC)CC2Cc3c(cccc3OCC(=O)O)CC21)OC(=O)OC (stereo not drawn) [Prodrug LXXI, treprostinil dicarbonate]
[1]
  AUC: 41.47 µmol·min/L
  Mono AUC (treprostinil formed): 41.5 µmol·min/L
[1]; hepatocytes
  CLint: > 0.0308 mL/min/mg protein
  Half-life: < 15 min
  CLint, calculated (in parentheses): 0.187 mL/min/mg protein
  Half-life, calculated (in parentheses): 2.47 min
[2]
  Activity at the EP2 receptor compared to treprostinil: inactive
[3]
  CLint, calculated (in parentheses): 0.295 mL/min/mg protein
  Half-life, calculated (in parentheses): 1.56 min
  AUC: 39.77 µmol·min/L
  Mono AUC (treprostinil formed): 39.8 µmol·min/L
  CLint: > 0.0308 mL/min/mg protein
  Half-life: < 15 min
[4]
  CLint, calculated (in parentheses): 0.575 mL/min/mg protein
  Half-life, calculated (in parentheses): 2.41 min
  AUC Mono (treprostinil formed): 33.5 µmol·min/L
  CLint: > 0.139 mL/min/mg protein
  Half-life: < 10 min
[5]
  AUC: 33.51 µmol·min/L
[6]
  AUC Mono (treprostinil formed): 56.2 µmol·min/L
[6]; microsomes
  CLint: > 0.139 mL/min/mg protein
  Half-life: < 10 min
  CLint, calculated (in parentheses): 0.454 mL/min/mg protein
  Half-life, calculated (in parentheses): 3.05 min
[7]; pH 6, 40 C.
  Hydrolysis to treprostinil, % Area, t = 1 week: 0.00 % Area
  Hydrolysis to treprostinil, % Area, t = 2 weeks: 0.00 % Area
  Hydrolysis to treprostinil, % Area, t = 3 weeks: 0.00 % Area
[7]; pH 7, 40 C.
  Hydrolysis to treprostinil, % Area, t = 1 week: 0.00 % Area
  Hydrolysis to treprostinil, % Area, t = 2 weeks: 0.00 % Area
  Hydrolysis to treprostinil, % Area, t = 3 weeks: 0.00 % Area
[7]; pH 8, 40 C.
  Hydrolysis to treprostinil, % Area, t = 1 week: 0.00 % Area
  Hydrolysis to treprostinil, % Area, t = 2 weeks: 0.00 % Area
  Hydrolysis to treprostinil, % Area, t = 3 weeks: 0.38 % Area
[8]
  AUC: 10.56 µmol·min/L
  AUC Mono (treprostinil formed): 10.6 µmol·min/L
[8]; microsomes
  CLint: > 0.139 mL/min/mg protein
  Half-life: < 10 min
  CLint, calculated (in parentheses): 0.189 mL/min/mg protein
  Half-life, calculated (in parentheses): 7.32 min

## treprostinil diacetate [Prodrug LXXII]
[1]
  Trep Concentration (μM) 0 min: 0.0636 µM
  Trep Concentration (μM) 30 min: 0.541 µM
  Trep Concentration (μM) 60 min: 0.465 µM
  Trep Concentration (μM) 120 min: 0.401 µM
  Treprostinil Concentration 15 min: 0.671 µM
  Treprostinil Concentration 120 min: 0.401 µM
  AUC: 55.67 µmol·min/L
  Mono AUC (treprostinil formed): 55.7 µmol·min/L
[1]; hepatocytes
  CLint: >0.0308 mL/min/mg protein
  Half-life: <15 min
[2]
  Activity at the EP2 receptor compared to treprostinil: non-traditional dose response curve
[3]
  Trep Concentration (μM) 0 min: 0 µM
  Trep Concentration (μM) 15 min: 0.24 µM
  Trep Concentration (μM) 30 min: 0.301 µM
  Trep Concentration (μM) 60 min: 0.298 µM
  Trep Concentration (μM) 120 min: 0.274 µM
  Treprostinil Concentration 0 min: 0 µM
  Treprostinil Concentration 120 min: 0.274 µM
  CLint, calculated (in parentheses): 0.0697 mL/min/mg protein
  Half-life, calculated (in parentheses): 6.63 min
  AUC: 32 µmol·min/L
  Mono AUC (treprostinil formed): 32.0 µmol·min/L
  CLint: > 0.0308 mL/min/mg protein
  Half-life: < 15 min
[4]
  Trep Concentration 0 min: 0.0413 µM
  Trep Concentration 10 min: 0.095 µM
  Trep Concentration 20 min: 0.182 µM
  Trep Concentration 30 min: 0.19 µM
  Trep Concentration 60 min: 0.216 µM
  Treprostinil Concentration 0 min: 0.0413 µM
  Treprostinil Concentration 15 min: 0.095 µM
  Treprostinil Concentration 30 min: 0.182 µM
  Treprostinil Concentration 60 min: 0.19 µM
  Treprostinil Concentration 120 min: 0.216 µM
  CLint, calculated (in parentheses): 0.144 mL/min/mg protein
  Half-life, calculated (in parentheses): 9.65 min
  AUC Mono (treprostinil formed): 10.0 µmol·min/L
  CLint: > 0.139 mL/min/mg protein
  Half-life: < 10 min
[5]
  AUC: 10.02 µmol·min/L
[6]
  Trep Concentration 0 min: 1.07 µM
  Trep Concentration 10 min: 1.07 µM
  Trep Concentration 20 min: 1.04 µM
  Trep Concentration 30 min: 1.05 µM
  Trep Concentration 60 min: 0.897 µM
  Treprostinil Concentration 0 min: 1.07 µM
  Treprostinil Concentration 15 min: 1.07 µM
  Treprostinil Concentration 30 min: 1.04 µM
  Treprostinil Concentration 60 min: 1.05 µM
  Treprostinil Concentration 120 min: 0.897 µM
  AUC Mono (treprostinil formed): 60.9 µmol·min/L
[6]; microsomes
  CLint: >0.139 mL/min/mg protein
  Half-life: <10 min
[7]; pH 6, 40 C.
  Hydrolysis to treprostinil, % Area, t = 1 week: 0.00 % Area
  Hydrolysis to treprostinil, % Area, t = 2 weeks: 0.00 % Area
  Hydrolysis to treprostinil, % Area, t = 3 weeks: 0.00 % Area
[7]; pH 7, 40 C.
  Hydrolysis to treprostinil, % Area, t = 1 week: 0.00 % Area
  Hydrolysis to treprostinil, % Area, t = 2 weeks: 0.00 % Area
  Hydrolysis to treprostinil, % Area, t = 3 weeks: 0.00 % Area
[7]; pH 8, 40 C.
  Hydrolysis to treprostinil, % Area, t = 1 week: 0.00 % Area
  Hydrolysis to treprostinil, % Area, t = 2 weeks: 0.00 % Area
  Hydrolysis to treprostinil, % Area, t = 3 weeks: 0.00 % Area
[8]
  Trep Concentration 0 min: 0.989 µM
  Trep Concentration 10 min: 0.829 µM
  Trep Concentration 20 min: 0.543 µM
  Trep Concentration 30 min: 0.485 µM
  Trep Concentration 60 min: 0.349 µM
  Treprostinil Concentration 0 min: 0.989 µM
  Treprostinil Concentration 15 min: 0.829 µM
  Treprostinil Concentration 30 min: 0.543 µM
  Treprostinil Concentration 60 min: 0.485 µM
  Treprostinil Concentration 120 min: 0.349 µM
  AUC: 33.6 µmol·min/L
  AUC Mono (treprostinil formed): 33.6 µmol·min/L
[8]; microsomes
  CLint: >0.139 mL/min/mg protein
  Half-life: <10 min
